Data from BigSolDB 2.1.

O=c1nc[nH]c2[nH]ncc12
Conditions	solubility (mole fraction)
in 1,4-dioxane, 283.15 K	2.91e-05
in 1,4-dioxane, 288.15 K	3.71e-05
in 1,4-dioxane, 293.15 K	4.64e-05
in 1,4-dioxane, 298.15 K	5.74e-05
in 1,4-dioxane, 303.15 K	7.03e-05
in 1,4-dioxane, 308.15 K	8.43e-05
in 1,4-dioxane, 313.15 K	0.000102
in 1,4-dioxane, 318.15 K	0.000123
in 1,4-dioxane, 323.15 K	0.000148
in 1,4-dioxane, 328.15 K	0.000178
in 1,4-dioxane, 333.15 K	0.000204
in 2-butanone, 278.15 K	0.000783
in 2-butanone, 283.15 K	0.000954
in 2-butanone, 288.15 K	0.00115
in 2-butanone, 293.15 K	0.00138
in 2-butanone, 298.15 K	0.00165
in 2-butanone, 303.15 K	0.00196
in 2-butanone, 308.15 K	0.00231
in 2-butanone, 313.15 K	0.00271
in 2-butanone, 318.15 K	0.00316
in 2-butanone, 323.15 K	0.00367
in 2-butanone, 328.15 K	0.00425
in 2-butanone, 333.15 K	0.00491
in DMF, 278.15 K	0.00223
in DMF, 283.15 K	0.00266
in DMF, 288.15 K	0.00316
in DMF, 293.15 K	0.00373
in DMF, 298.15 K	0.00437
in DMF, 303.15 K	0.00509
in DMF, 308.15 K	0.00591
in DMF, 313.15 K	0.00683
in DMF, 318.15 K	0.00785
in DMF, 323.15 K	0.00898
in DMF, 328.15 K	0.01
in DMF, 333.15 K	0.0121
in NMP, 278.15 K	0.0151
in NMP, 283.15 K	0.017
in NMP, 288.15 K	0.02
in NMP, 293.15 K	0.022
in NMP, 298.15 K	0.0251
in NMP, 303.15 K	0.0281
in NMP, 308.15 K	0.032
in NMP, 313.15 K	0.035
in NMP, 318.15 K	0.0391
in NMP, 323.15 K	0.0431
in NMP, 328.15 K	0.0481
in NMP, 333.15 K	0.0531
in acetone, 278.15 K	0.000653
in acetone, 283.15 K	0.000797
in acetone, 288.15 K	0.000966
in acetone, 293.15 K	0.00116
in acetone, 298.15 K	0.00139
in acetone, 303.15 K	0.00166
in acetone, 308.15 K	0.00196
in acetone, 313.15 K	0.00231
in acetone, 318.15 K	0.0027
in acetone, 323.15 K	0.00314
in acetone, 328.15 K	0.00365
in acetone, 333.15 K	0.00421
in acetonitrile, 278.15 K	9.6e-05
in acetonitrile, 283.15 K	0.000117
in acetonitrile, 288.15 K	0.000141
in acetonitrile, 293.15 K	0.00017
in acetonitrile, 298.15 K	0.000204
in acetonitrile, 303.15 K	0.000239
in acetonitrile, 308.15 K	0.000286
in acetonitrile, 313.15 K	0.000331
in acetonitrile, 318.15 K	0.000384
in acetonitrile, 323.15 K	0.000448
in acetonitrile, 328.15 K	0.000522
in acetonitrile, 333.15 K	0.00059
in cyclohexane, 283.15 K	4.74e-07
in cyclohexane, 288.15 K	6.38e-07
in cyclohexane, 293.15 K	7.68e-07
in cyclohexane, 298.15 K	1.02e-06
in cyclohexane, 303.15 K	1.24e-06
in cyclohexane, 308.15 K	1.61e-06
in cyclohexane, 313.15 K	1.97e-06
in cyclohexane, 318.15 K	2.48e-06
in cyclohexane, 323.15 K	3.05e-06
in cyclohexane, 328.15 K	3.77e-06
in cyclohexane, 333.15 K	4.37e-06
in ethanol, 278.15 K	2.46e-05
in ethanol, 283.15 K	3.28e-05
in ethanol, 288.15 K	4.27e-05
in ethanol, 293.15 K	5.5e-05
in ethanol, 298.15 K	6.99e-05
in ethanol, 303.15 K	8.97e-05
in ethanol, 308.15 K	0.000109
in ethanol, 313.15 K	0.000139
in ethanol, 318.15 K	0.000172
in ethanol, 323.15 K	0.000211
in ethanol, 328.15 K	0.000258
in ethanol, 333.15 K	0.00031
in isopropanol, 278.15 K	3.64e-05
in isopropanol, 283.15 K	4.68e-05
in isopropanol, 288.15 K	5.84e-05
in isopropanol, 293.15 K	7.35e-05
in isopropanol, 298.15 K	9.2e-05
in isopropanol, 303.15 K	0.000112
in isopropanol, 308.15 K	0.000138
in isopropanol, 313.15 K	0.000171
in isopropanol, 318.15 K	0.000204
in isopropanol, 323.15 K	0.000245
in isopropanol, 328.15 K	0.000296
in isopropanol, 333.15 K	0.000346
in methanol, 278.15 K	2.05e-05
in methanol, 283.15 K	2.7e-05
in methanol, 288.15 K	3.61e-05
in methanol, 293.15 K	4.65e-05
in methanol, 298.15 K	5.97e-05
in methanol, 303.15 K	7.6e-05
in methanol, 308.15 K	9.62e-05
in methanol, 313.15 K	0.00012
in methanol, 318.15 K	0.000152
in methanol, 323.15 K	0.000189
in methanol, 328.15 K	0.000235
in methanol, 333.15 K	0.000283
in n-butanol, 278.15 K	6.63e-05
in n-butanol, 283.15 K	8.13e-05
in n-butanol, 288.15 K	0.0001
in n-butanol, 293.15 K	0.000124
in n-butanol, 298.15 K	0.000151
in n-butanol, 303.15 K	0.000184
in n-butanol, 308.15 K	0.000219
in n-butanol, 313.15 K	0.00026
in n-butanol, 318.15 K	0.000312
in n-butanol, 323.15 K	0.000366
in n-butanol, 328.15 K	0.000429
in n-butanol, 333.15 K	0.000496
in n-heptanol, 278.15 K	0.000127
in n-heptanol, 283.15 K	0.000149
in n-heptanol, 288.15 K	0.000175
in n-heptanol, 293.15 K	0.000205
in n-heptanol, 298.15 K	0.000239
in n-heptanol, 303.15 K	0.000276
in n-heptanol, 308.15 K	0.000318
in n-heptanol, 313.15 K	0.000365
in n-heptanol, 318.15 K	0.000418
in n-heptanol, 323.15 K	0.000473
in n-heptanol, 328.15 K	0.000544
in n-heptanol, 333.15 K	0.000614
in n-hexanol, 278.15 K	8.05e-05
in n-hexanol, 283.15 K	9.84e-05
in n-hexanol, 288.15 K	0.000119
in n-hexanol, 293.15 K	0.000145
in n-hexanol, 298.15 K	0.000177
in n-hexanol, 303.15 K	0.000214
in n-hexanol, 308.15 K	0.000259
in n-hexanol, 313.15 K	0.000302
in n-hexanol, 318.15 K	0.00036
in n-hexanol, 323.15 K	0.00042
in n-hexanol, 328.15 K	0.000499
in n-hexanol, 333.15 K	0.000566
in n-propanol, 278.15 K	4.85e-05
in n-propanol, 283.15 K	6.16e-05
in n-propanol, 288.15 K	7.66e-05
in n-propanol, 293.15 K	9.52e-05
in n-propanol, 298.15 K	0.000114
in n-propanol, 303.15 K	0.00014
in n-propanol, 308.15 K	0.000164
in n-propanol, 313.15 K	0.000201
in n-propanol, 318.15 K	0.000247
in n-propanol, 323.15 K	0.000293
in n-propanol, 328.15 K	0.000349
in n-propanol, 333.15 K	0.000403
in water, 278.15 K	8.71e-06
in water, 283.15 K	1.18e-05
in water, 288.15 K	1.57e-05
in water, 293.15 K	2.12e-05
in water, 298.15 K	2.94e-05
in water, 303.15 K	3.83e-05
in water, 308.15 K	5.01e-05
in water, 313.15 K	6.44e-05
in water, 318.15 K	8.32e-05
in water, 323.15 K	0.000107
in water, 328.15 K	0.000134
in water, 333.15 K	0.000167
